Source: patent US8207177B2, “Inhibitors of E1 activating enzymes” (Millennium Pharmaceuticals, Inc., priority 2006, dated 2012)

Molecular target: T1, recombinant human NAE enzyme (Homo sapiens, UniProt Q8TBC4)
T1 construct: His (N); made in house; host or cells: Sf9 insect cells (baculovirus, Bac-to-Bac), purified on Ni-NTA
T1 sequence (Q8TBC4 1-463): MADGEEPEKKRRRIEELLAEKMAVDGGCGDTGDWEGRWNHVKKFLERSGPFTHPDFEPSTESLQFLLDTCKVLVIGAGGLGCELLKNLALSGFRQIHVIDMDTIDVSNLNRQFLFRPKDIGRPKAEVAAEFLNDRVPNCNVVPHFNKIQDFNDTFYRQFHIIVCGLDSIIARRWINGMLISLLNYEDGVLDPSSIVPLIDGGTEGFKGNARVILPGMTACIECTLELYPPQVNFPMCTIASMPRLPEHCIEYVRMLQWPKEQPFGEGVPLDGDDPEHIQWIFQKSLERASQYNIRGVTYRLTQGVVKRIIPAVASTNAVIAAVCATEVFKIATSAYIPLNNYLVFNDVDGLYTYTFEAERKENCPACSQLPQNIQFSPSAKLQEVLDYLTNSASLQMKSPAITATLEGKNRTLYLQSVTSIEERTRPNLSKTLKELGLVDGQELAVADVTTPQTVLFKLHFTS
T1 sequence (Q13564 1-534 partner): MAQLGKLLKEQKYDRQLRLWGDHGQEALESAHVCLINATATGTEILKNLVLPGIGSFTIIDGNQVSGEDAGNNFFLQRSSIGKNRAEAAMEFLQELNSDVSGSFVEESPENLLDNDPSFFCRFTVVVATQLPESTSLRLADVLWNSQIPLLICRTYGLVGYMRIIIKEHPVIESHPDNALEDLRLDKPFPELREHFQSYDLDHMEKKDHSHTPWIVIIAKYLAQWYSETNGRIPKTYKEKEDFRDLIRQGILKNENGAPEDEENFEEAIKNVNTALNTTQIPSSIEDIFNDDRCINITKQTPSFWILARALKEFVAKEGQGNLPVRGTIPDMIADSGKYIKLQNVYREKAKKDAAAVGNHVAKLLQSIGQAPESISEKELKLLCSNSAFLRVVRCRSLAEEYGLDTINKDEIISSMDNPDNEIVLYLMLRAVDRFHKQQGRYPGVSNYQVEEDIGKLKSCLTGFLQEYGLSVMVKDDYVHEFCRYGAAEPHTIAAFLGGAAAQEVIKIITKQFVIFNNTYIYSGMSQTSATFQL
Experiment: Nedd8-Activating Enzyme (NAE) HTRF Assay
Format: biochemical
Settings: threshold statement: less than or equal to 100 nM; 20 μM ATP, 90 minutes at 24° C.
Description: Following manufacturer instructions, baculoviruses were generated with the Bac-to-Bac Expression System (Invitrogen) for the following proteins: untagged NAEα (APPBP1; NP_003896.1), N-terminally His-tagged NAEβ (UBE1C; NP_003959.3), untagged SAEα (SAE1; NP_005491.1), N-terminally His-tagged SAEβ (UBA2; NP_005490.1), N-terminally His-tagged murine UAE (UBE1X; NP_033483). NAEα/His-NAEβ and SAEα/His-SAEβ complexes were generated by co-infection of Sf9 cells, which were harvested after 48 hours. His-mUAE was generated by single infection of Sf9 cells and harvested after 72 hours. Expressed proteins were purified by affinity chromatography (Ni—NTA agarose, Qiagen) using standard buffers. Ubc12 (UBE2M; NP_003960.1), Ubc9 (UBE2I; NP_003336.1), Ubc2 (UBE2A; NP_003327.2) were subcloned into pGEX (Pharmacia) and expressed as N-terminally GST tagged fusion proteins in E. coli. Expressed proteins were purified by conventional affinity chromatography using standard buffers. Nedd8 (NP_006147), Sumo-1 (NP_003343) and Ubiquitin (with optimized codons) were subcloned into pFLAG-2 (Sigma) and expressed as N-terminally Flag tagged fusion proteins in E. coli. Expressed proteins were purified by conventional chromatography using standard buffers. Nedd8-Activating Enzyme (NAE) HTRF Assay. The NAE enzymatic reaction totaled 50 μL and contained 50 mM HEPES (pH 7.5), 0.05% BSA, 5 mM MgCl2, 20 μM ATP, 250 μM GSH, 0.01 μM Ubc12-GST, 0.075 μM Nedd8-Flag and 0.28 nM recombinant human NAE enzyme. The enzymatic reaction mixture, with and without compound inhibitor, was incubated at 24° C. for 90 minutes in a 384-well plate before termination with 25 μL of Stop/Detection buffer (0.1M HEPES pH 7.5, 0.05% Tween20, 20 mM EDTA, 410 mM KF, 0.53 nM Europium-Cryptate labeled monoclonal anti-FLAG M2 antibody (CisBio International) and 8.125 μg/mL PHYCOLINK goat anti-GST allophycocyanin (XL-APC) antibody (Prozyme)). After incubation for 3 hours at 24° C., quantification of the FRET was performed on the Analyst™ HT 96.384 (Molecular Devices).

IC50, ≤ 0.1 µM:
CC1(C)C[C@H](Nc2ncnc3c2ccn3[C@@H]2C[C@@H](COS(N)(=O)=O)[C@@H](O)C2)c2ccccc21 (single isomer, unassigned) [Compound I-14]
CC1(C)C[C@@H](Nc2ncnc3c2ccn3[C@@H]2C[C@@H](COS(N)(=O)=O)[C@@H](O)C2)c2ccccc21 (single isomer, unassigned) [Compound I-21]
NS(=O)(=O)OC1CC(n2ccc3c(N[C@H]4CCc5ccccc54)ncnc32)CC1O (stereo in doubt) [Compound I-78, (1R,2S,4S)-4-{4-[(1S)-2,3-dihydro-1H-inden-1-ylamino]-7H-pyrrolo[2,3-d]pyrimidin-7-yl}-2-hydroxycyclopentyl sulfamate]
COC[C@H]1Cc2ccccc2C1Nc1ncnc2c1ccn2[C@@H]1C[C@@H](COS(N)(=O)=O)[C@@H](O)C1 (stereo in doubt) [Compound I-80, [(1S,2S,4R)-2-hydroxy-4-(4-{[(1S,2S)-2-(methoxymethyl)-2,3-dihydro-1H-inden-1-yl]amino}-7H-pyrrolo[2,3-d]pyrimidin-7-yl)cyclopentyl]methyl sulfamate]
NS(=O)(=O)OC[C@@H]1C[C@@H](n2ccc3c(NCc4ccccc4Cl)ncnc32)C[C@@H]1O [Compound I-1, ((1S,2S,4R)-4-{4-[(2-chlorobenzyl)amino]-7H-pyrrolo[2,3-d]pyrimidin-7-yl}-2-hydroxycyclopentyl)methyl sulfamate]
NS(=O)(=O)OC[C@@H]1C[C@@H](n2ccc3c(NCc4ccccc4OC(F)F)ncnc32)C[C@@H]1O [Compound I-2, [(1S,2S,4R)-4-(4-{[2-(difluoromethoxy)benzyl]amino}-7H-pyrrolo[2,3-d]-pyrimidin-7-yl)-2-hydroxycyclopentyl]methyl sulfamate]
C[C@@H](c1ccccc1)N(C)c1ncnc2c1ccn2[C@@H]1C[C@@H](COS(N)(=O)=O)[C@@H](O)C1 [Compound I-3, [(1S,2S,4R)-2-hydroxy-4-(4-{methyl[(1S)-1-phenylethyl]amino}-7H-pyrrolo-[2,3-d]pyrimidin-7-yl)cyclopentyl]methyl sulfamate]
C[C@H](Nc1ncnc2c1ccn2[C@@H]1C[C@@H](COS(N)(=O)=O)[C@@H](O)C1)c1ccccc1 [Compound I-4, [(1S,2S,4R)-2-hydroxy-4-(4-{[(1S)-1-phenylethyl]amino}-7H-pyrrolo[2,3-d]-pyrimidin-7-yl)cyclopentyl]methyl sulfamate]
CN(c1ncnc2c1ccn2[C@@H]1C[C@@H](COS(N)(=O)=O)[C@@H](O)C1)[C@H]1CCc2ccccc21 [Compound I-6, ((1S,2S,4R)-4-{4-[(1S)-2,3-dihydro-1H-inden-1-yl(methyl)amino]-7H-pyrrolo-[2,3-d]pyrimidin-7-yl}-2-hydroxycyclopentyl)methyl sulfamate]
C[C@@H](Nc1ncnc2c1ccn2[C@@H]1C[C@@H](COS(N)(=O)=O)[C@@H](O)C1)c1ccccc1 [Compound I-7, [(1S,2S,4R)-2-hydroxy-4-(4-{[(1R)-1-phenylethyl]amino}-7H-pyrrolo[2,3-d]-pyrimidin-7-yl)cyclopentyl]methyl sulfamate]
NS(=O)(=O)OC[C@@H]1C[C@@H](n2ccc3c(NCc4ccc(C(F)(F)F)cc4)ncnc32)C[C@@H]1O [Compound I-8, [(1S,2S,4R)-2-hydroxy-4-(4-{[4-(trifluoromethyl)benzyl]amino}-7H-pyrrolo-[2,3-d]pyrimidin-7-yl)cyclopentyl]methyl sulfamate]
NS(=O)(=O)OC[C@@H]1C[C@@H](n2ccc3c(N[C@H]4CCOc5ccccc54)ncnc32)C[C@@H]1O [Compound I-12, ((1S,2S,4R)-4-{4-[(4S)-3,4-dihydro-2H-chromen-4-ylamino]-7H-pyrrolo[2,3-d]-pyrimidin-7-yl}-2-hydroxycyclopentyl)methyl sulfamate]
NS(=O)(=O)OC[C@@H]1C[C@@H](n2ccc3c(NCc4c(F)cccc4F)ncnc32)C[C@@H]1O [Compound I-15, ((1S,2S,4R)-4-{4-[(2,6-dif1uorobenzyl)amino]-7H-pyrrolo[2,3-d]pyrimidin-7-yl}-2-hydroxycyclopentyl)methyl sulfamate]
NS(=O)(=O)OC[C@@H]1C[C@@H](n2ccc3c(NCc4cc(Cl)cc(Cl)c4)ncnc32)C[C@@H]1O [Compound I-16, ((1S,2S,4R)-4-{4-[(3,5-dichlorobenzyl)amino]-7H-pyrrolo[2,3-d]pyrimidin-7-yl}-2-hydroxycyclopentyl)methyl sulfamate]
NS(=O)(=O)OC[C@@H]1C[C@@H](n2ccc3c(N[C@H]4CCc5ccccc54)ncnc32)[C@H](O)[C@@H]1O [Compound I-17, ((1S,2R,3S,4R)-4-{4-[(1S)-2,3-dihydro-1H-inden-1-ylamino]-7H-pyrrolo[2,3-d]-pyrimidin-7-yl}-2,3-dihydroxycyclopentyl)methyl sulfamate]
Nc1ncnc2c1ccn2[C@@H]1C[C@@H](COS(N)(=O)=O)[C@@H](O)C1 [Compound I-18, [(1S,2S,4R)-4-(4-amino-7H-pyrrolo[2,3-d]pyrimidin-7-yl)-2-hydroxycyclopentyl]methyl sulfamate]
NS(=O)(=O)OC[C@@H]1C[C@@H](n2ccc3c(NCc4ccc(Cl)cc4Cl)ncnc32)C[C@@H]1O [Compound I-19, ((1S,2S,4R)-4-{4-[(2,4-dichlorobenzyl)amino]-7H-pyrrolo[2,3-d]pyrimidin-7-yl}-2-hydroxycyclopentyl)methyl sulfamate]
NS(=O)(=O)OC[C@@H]1C[C@@H](n2ccc3c(NCc4ccc(Cl)cc4)ncnc32)[C@H](O)[C@@H]1O [Compound I-22, ((1S,2R,3S,4R)-4-{4-[(4-chlorobenzyl)amino]-7H-pyrrolo[2,3-d]pyrimidin-7-yl)-2,3-dihydroxycyclopentyl)methyl sulfamate]
NS(=O)(=O)OC[C@@H]1C[C@@H](n2cnc3c(NCc4ccc(Cl)cc4)ncnc32)C[C@@H]1O [Compound I-23, ((1S,2S,4R)-4-{6-[(4-chlorobenzyl)amino]-9H-purin-9-yl}-2-hydroxycyclopentyl)methyl sulfamate]
NS(=O)(=O)OC[C@@H]1C[C@@H](n2ccc3c(NCc4ccc(Cl)c(Cl)c4)ncnc32)C[C@@H]1O [Compound I-24, ((1S,2S,4R)-4-{4-[(3,4-dichlorobenzyl)amino]-7H-pyrrolo[2,3-d]pyrimidin-7-yl}-2-hydroxycyclopentyl)methyl sulfamate]
NS(=O)(=O)OC[C@@H]1C[C@@H](n2ccc3c(NCC4CC4)ncnc32)C[C@@H]1O [Compound I-25, ((1S,2S,4R)-4-{4-[(cyclopropylmethyl)amino]-7H-pyrrolo[2,3-d]pyrimidin-7-yl}-2-hydroxycyclopentyl)methyl sulfamate]
